Laboratory results as given in patent publication US20180055797A1, “NON-RACEMIC KETONE SALTS FOR RAPID-ONSET NUTRITIONAL KETOSIS AND METABOLIC THERAPY” (KetoneAid Inc., priority 2016, published 2018).

Columns and labels:
[1] = Ketone blood concentration after ingestion of 1,3-butanediol (FIG. 2, FIG. 3); assay type: in vivo, person; settings: for increase in ketones over pre consumption ketone levels: one person (D), two people racemic
Text: FIG. 2 depicts an exemplary ketone blood concentration after ingestion of racemic 1,3-butanediol.
FIG. 3 depicts a ketone blood concentration after one person ingested (D) 1,3-butanediol, compared to the results of two people ingesting racemic 1,3-butanediol.
It should also be noted that only the D enantiomer is active in the body as a source of extracellular fuel that is then transported into the cells. Ketone blood level meters currently on the market only measure the blood level of the D enantiomer. Products containing racemic salts require two to three times the amount of sodium, calcium and potassium for an equal amount of D-β-hydroxybutyrate readings in the blood. A reason the potential levels of D-β-hydroxybutyrate in the blood is over double with chiral solutions is because the body has to waste energy and uses up some of the D-β-hydroxybutyrate to burn off the unnatural L-O-hydroxybutyrate.
FIG. 2 depicts exemplary results from ingestion of 33 ml racemic 1,3-butanediol. […] For example, as shown, the chiral form provided an increase in ketones of approximately 3.2 mmol/L whereas the racemic form provided approximately 0.9-1.0 mmol/L increases over pre consumption ketone levels.

[2] = cited from earlier work

SMILES: CC(O)CCO (stereo not drawn) [(D)-1,3-butanediol]
- D-β-hydroxybutyrate in the blood, (D) relative to racemic 1,3-butanediol ([1]; 33 ml of each, FIG. 3): over double
- increase in ketones over pre consumption ketone levels ([1]; ingestion of 33 ml, FIG. 3): approximately 3.2 mmol/L

SMILES: CC(O)CC(=O)[O-].[Na+] (racemic) [racemic sodium β-hydroxybutyrate, sodium β-hydroxybutyrate]
- ketones level a person would be limited to ([2]; consuming at about 100-200% of the RDA for sodium): approximately 0.5 mmol/L

SMILES: CC(O)CC(=O)[O-].[K+] (racemic) [racemic potassium β-hydroxybutyrate, potassium β-hydroxybutyrate]
- ketones level a person would be limited to reaching ([2]; consuming at about 100% of potassium's RDA): approximately 0.5 mmol/L

SMILES: CC(O)CCO (racemic) [racemic 1,3-butanediol, 1,3-butanediol]
- increase in ketones over pre consumption ketone levels ([1]; ingestion of 33 ml, FIG. 3): 0.9 to 1.0 mmol/L
- ketone blood concentration achieved ([1]; ingestion of 33 ml, over a 105-minute period, FIG. 2): ≤ 1 mmol/L
